pEC50: −log10 of the molar value. Like-named read-outs stand apart in the source and are kept apart here. Bounds are passed on as bounds.

The results in this text go back to patent US9527885B2, “Hepatitis C virus inhibitors” (BRISTOL-MYERS SQUIBB COMPANY, priority 2011, dated 2016).

The test system of test [1] is HCV genotype 1a (H77 strain) replicon in HUH-7 cells. As to the kind of experiment: HCV replicon luciferase reporter assay, genotype 1a. The conditions noted are these: Hepatitis C virus, Huh-7, 72 h, HCV genotype 1a replicon luciferase, 3 days incubation, read-out: LE_1a (EC50, range). It is filed as cell-based. The essentials: (§1)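 Twenty-point, threefold compound titrations (0.5% DMSO) were incubated 3 days at 37 °C with 3.0×10^3 HUH-7 cells/well in 4% FCS. The cells stably carried luciferase replicons: genotype 1b Con1 (S1179I) or 1a H77 (NS3 P1496L, NS5A S2204I). Renilla signal was read after 2 h with 7.5 μM EnduRen, and EC50 was taken from a four-parameter logistic fit. Cytotoxicity (CC50) was measured by Cell Titer-Blue, 8 h.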

Test [2] has as its system HCV genotype 1b (Con1) replicon in HUH-7 cells. As to the kind of experiment: HCV replicon luciferase reporter assay, genotype 1b. It counts as cell-based. As to conditions: Hepatitis C virus, 72 h, HCV genotype 1b replicon luciferase, 3 days incubation, read-out: LE_1b (EC50, range). The essentials: as §1

One may read the pEC50 as the EC50 on a negative log10 scale, so that one unit is a factor of ten. Take `CCCOc1ccc2c(O[C@@H]3C[C@H]4C(=O)N[C@]5(C(=O)NS(=O)(=O)C6CC6)C[C@H]5/C=C\CC[C@@H](C)C[C@@H](C)[C@H](NC(=O)OC(C(F)(F)F)(C(Cl)(Cl)Cl)C(Cl)(Cl)Cl)C(=O)N4C3)nccc2c1` [Compound 5173, 1,1,1,3,3,3-hexachloro-2-(trifluoromethyl)propan-2-yl ((2R,6S,7R,9R,13aS,14aR,16aS,Z)-14a-((cyclopropylsulfonyl)carbamoyl)-7,9-dimethyl-5,16-dioxo-2-((6-propoxyisoquinolin-1-yl)oxy)-1,2,3,5,6,7,8,9,10,11,13a,14,14a,15,16,16a-hexadecahydrocyclopropa[e]pyrrolo[1,2-a][1,4]diazacyclopentadecin-6-yl)carbamate]: the pEC50 in test [1] (range class) and in test [2] (range class) was over 8.26 throughout.
Take `COc1ccc2c(O[C@@H]3C[C@H]4C(=O)N[C@]5(C(=O)NS(=O)(=O)C6(CF)CC6)C[C@H]5/C=C\CC[C@@H](C)C[C@@H](C)[C@H](NC(=O)OC(C)(C)C(F)(F)F)C(=O)N4C3)cc(Cl)nc2c1` [Compound 4199, 1,1,1-trifluoro-2-methylpropan-2-yl (2R,6S,7R,9R,13aS,14aR,16aS,Z)-2-(2-chloro-7-methoxyquinolin-4-yloxy)-14a-(1-(fluoromethyl)cyclopropylsulfonylcarbamoyl)-7,9-dimethyl-5,16-dioxo-1,2,3,5,6,7,8,9,10,11,13a,14,14a,15,16,16a-hexadecahydrocyclopropa[e]pyrrolo[1,2-a][1,4]diazacyclopentadecin-6-ylcarbamate]: the negative-log EC50 (pEC50) in test [1] (class symbols) and in test [2] (class symbols) was over 8.26 throughout.
As to `CCOc1cnc(O[C@@H]2C[C@H]3C(=O)N[C@]4(C(=O)NS(=O)(=O)C5(C)CC5)C[C@H]4/C=C\CC[C@@H](C)C[C@@H](C)[C@H](NC(=O)OC(C)(C)C(C)(F)F)C(=O)N3C2)c2ccccc12` [Compound 5113, 3,3-difluoro-2-methylbutan-2-yl ((2R,6S,7R,9R,13 aS,14aR,16aS,Z)-2-((4-ethoxyisoquinolin-1-yl)oxy)-7,9-dimethyl-14a-(((1-methylcyclopropyl)sulfonyl)carbamoyl)-5,16-dioxo-1,2,3,5,6,7,8,9,10,11,13a,14,14a,15,16,16a-hexadecahydrocyclopropa[e]pyrrolo[1,2-a][1,4]diazacyclopentadecin-6-yl)carbamate], the pEC50 in test [1] (class symbols) and in test [2] (class symbols) was over 8.26 each time.
With `COc1cnc(O[C@@H]2C[C@H]3C(=O)N[C@]4(C(=O)NS(=O)(=O)C5(C)CC5)C[C@H]4/C=C\CC[C@H](C)C[C@@H](C)[C@H](NC(=O)OC(C)(C)C)C(=O)N3C2)c2ccccc12` [Compound 4058, tert-butyl (2R,6S,7R,9S,13aS,14aR,16aS,Z)-2-(4-methoxyisoquinolin-1-yloxy)-7,9-dimethyl-14a-(1-methylcyclopropylsulfonylcarbamoyl)-5,16-dioxo-1,2,3,5,6,7,8,9,10,11,13a,14,14a,15,16,16a-hexadecahydrocyclopropa[e]pyrrolo[1,2-a][1,4]diazacyclopentadecin-6-ylcarbamate], the negative logarithm of the EC50 (pEC50) in test [1] (class symbols) and in test [2] (class symbols) was over 8.26 throughout.
Regarding `CC[C@@H]1C[C@H](C)CC/C=C\[C@@H]2C[C@@]2(C(=O)NS(=O)(=O)C2CC2)NC(=O)[C@@H]2C[C@@H](Oc3ncc(OC)c4ccc(F)cc34)CN2C(=O)[C@H]1NC(=O)OC(C)(C)C` [Compound 4001, tert-butyl tert-butyl (2R,6S,7R,9R,13aS,14aR,16aS,Z)-14a-(cyclopropylsulfonylcarbamoyl)-7-ethyl-2-(7-fluoro-4-methoxyisoquinolin-1-yloxy)-9-methyl-5,16-dioxo-1,2,3,5,6,7,8,9,10,11,13a,14,14a,15,16,16a-hexadecahydrocyclopropa[e]pyrrolo[1,2-a][1,4]diazacyclopentadecin-6-ylcarbamate], the pEC50 in test [1] (class symbols) and in test [2] (class symbols) was over 8.26 throughout.
With `CC[C@@H]1C[C@H](C)CC/C=C\[C@@H]2C[C@@]2(C(=O)NS(=O)(=O)C2CC2)NC(=O)[C@@H]2C[C@@H](Oc3cnc4ccc(OC)cc4n3)CN2C(=O)[C@H]1NC(=O)OC(C)(C)C(F)(F)F` [Compound 4194, 1,1,1-trifluoro-2-methylpropan-2-yl (2R,6S,7R,9R,13aS,14aR,16aS,Z)-14a-(cyclopropylsulfonylcarbamoyl)-7-ethyl-2-(7-methoxyquinoxalin-2-yloxy)-9-methyl-5,16-dioxo-1,2,3,5,6,7,8,9,10,11,13a,14,14a,15,16,16a-hexadecahydrocyclopropa[e]pyrrolo[1,2-a][1,4]diazacyclopentadecin-6-ylcarbamate], the negative logarithm of the EC50 (pEC50) in test [1] (class symbols) and in test [2] (class symbols) was over 8.26 each time.
In the case of `C[C@@H]1CC/C=C\[C@@H]2C[C@@]2(C(=O)NS(=O)(=O)C2CC2)NC(=O)[C@@H]2C[C@@H](Oc3nccc4c5c(ccc34)OC(F)(F)O5)CN2C(=O)[C@@H](NC(=O)O[C@@H]2C[C@@H]3C[C@@H]3C2)[C@H](C)C1` [Compound 5274, (1R,3r,5S)-bicyclo[3.1.0]hexan-3-yl ((2R,6S,7R,9R,13aS,14aR,16aS,Z)-14a-((cyclopropylsulfonyl)carbamoyl)-2-((2,2-difluoro-[1,3]dioxolo[4,5-f]isoquinolin-6-yl)oxy)-7,9-dimethyl-5,16-dioxo-1,2,3,5,6,7,8,9,10,11,13a,14,14a,15,16,16a-hexadecahydrocyclopropa[e]pyrrolo[1,2-a][1,4]diazacyclopentadecin-6-yl)carbamate], the negative logarithm of the EC50 (pEC50) in test [1] (range class) and in test [2] (range class) was over 8.26 throughout.
With `CC[C@@H]1C[C@H](C)CC/C=C\[C@@H]2C[C@@]2(C(=O)NS(=O)(=O)C2(C)CC2)NC(=O)[C@@H]2C[C@@H](Oc3ncc(OC)c4ccc(F)cc34)CN2C(=O)[C@H]1NC(=O)OC(C)(C)C(F)(F)F` [Compound 4186, 1,1,1-trifluoro-2-methylpropan-2-yl (2R,6S,7R,9R,13aS,14aR,16aS,Z)-7-ethyl-2-(7-fluoro-4-methoxyisoquinolin-1-yloxy)-9-methyl-14a-(1-methylcyclopropylsulfonylcarbamoyl)-5,16-dioxo-1,2,3,5,6,7,8,9,10,11,13a,14,14a,15,16,16a-hexadecahydrocyclopropa[e]pyrrolo[1,2-a][1,4]diazacyclopentadecin-6-ylcarbamate], the pEC50 in test [1] (class symbols) and in test [2] (class symbols) was over 8.26 throughout.
Turning to `CC[C@@H]1C[C@H](C)CC/C=C\[C@@H]2C[C@@]2(C(=O)NS(=O)(=O)C2(C)CC2)NC(=O)[C@@H]2C[C@@H](Oc3nc4c(c5ccccc35)OCCC4)CN2C(=O)[C@H]1NC(=O)OC(C)(C)C(F)(F)F` [Compound 6028, 1,1,1-trifluoro-2-methylpropan-2-yl ((2R,6S,7R,9R,13aS,14aR,16aS,Z)-2-((3,4-dihydro-2H-pyrano[3,2-c]isoquinolin-6-yl)oxy)-7-ethyl-9-methyl-14a-(((1-methylcyclopropyl)sulfonyl)carbamoyl)-5,16-dioxo-1,2,3,5,6,7,8,9,10,11,13a,14,14a,15,16,16a-hexadecahydrocyclopropa[e]pyrrolo[1,2-a][1,4]diazacyclopentadecin-6-yl)carbamate], the pEC50 in test [1] (range class) and in test [2] (range class) was over 8.26 each time.
`CC[C@@H]1C[C@H](C)CC/C=C\[C@@H]2C[C@@]2(C(=O)NS(=O)(=O)C2(C)CC2)NC(=O)[C@@H]2C[C@@H](Oc3ncc(OC)c4ccccc34)CN2C(=O)[C@H]1NC(=O)OC(C)(C)C(F)(F)F` [Compound 4174, 1,1,1-trifluoro-2-methylpropan-2-yl (2R,6S,7R,9R,13aS,14aR,16aS,Z)-7-ethyl-2-(4-methoxyisoquinolin-1-yloxy)-9-methyl-14a-(1-methylcyclopropylsulfonylcarbamoyl)-5,16-dioxo-1,2,3,5,6,7,8,9,10,11,13a,14,14a,15,16,16a-hexadecahydrocyclopropa[e]pyrrolo[1,2-a][1,4]diazacyclopentadecin-6-ylcarbamate]: the negative-log EC50 (pEC50) in test [1] (class symbols) and in test [2] (class symbols) was over 8.26 throughout.
Take `C[C@@H]1CC/C=C\[C@@H]2C[C@@]2(C(=O)NS(=O)(=O)C2CC2)NC(=O)[C@@H]2C[C@@H](Oc3ncc(OCC4CC4)c4ccccc34)CN2C(=O)[C@@H](NC(=O)OC(C)(C)C(F)(F)F)[C@H](C)C1` [Compound 4030, 1,1,1-trifluoro-2-methylpropan-2-yl (2R,6S,7R,9R,13aS,14aR,16aS,Z)-2-(4-(cyclopropylmethoxy)isoquinolin-1-yloxy)-14a-(cyclopropylsulfonylcarbamoyl)-7,9-dimethyl-5,16-dioxo-1,2,3,5,6,7,8,9,10,11,13a,14,14a,15,16,16a-hexadecahydrocyclopropa[e]pyrrolo[1,2-a][1,4]diazacyclopentadecin-6-ylcarbamate]: the pEC50 in test [1] (class symbols) and in test [2] (class symbols) was over 8.26 in each case.
`CC[C@@H]1C[C@H](C)CC/C=C\[C@@H]2C[C@@]2(C(=O)NS(=O)(=O)C2CC2)NC(=O)[C@@H]2C[C@@H](Oc3ncc(OC)c4ccccc34)CN2C(=O)[C@H]1NC(=O)OC(C)(C)C` [Compound 4007, tert-butyl (2R,6S,7R,9R,13aS,14aR,16aS,Z)-14a-(cyclopropylsulfonylcarbamoyl)-7-ethyl-2-(4-methoxyisoquinolin-1-yloxy)-9-methyl-5,16-dioxo-1,2,3,5,6,7,8,9,10,11,13a,14,14a,15,16,16a-hexadecahydrocyclopropa[e]pyrrolo[1,2-a][1,4]diazacyclopentadecin-6-ylcarbamate]: the negative-log EC50 (pEC50) in test [1] (class symbols) and in test [2] (class symbols) was over 8.26 in each case.
